Test results: patent US11912699B2, “Tau-protein targeting compounds and associated” (Arvinas Operations, Inc., priority 2019, dated 2024)

biological target: T1, Tau P301L (Homo sapiens, UniProt P10636, P618L); assay: In vitro tau degradation assay in CHOK1 Tau P301L cells (sarkosyl insoluble tau, WES); type: cell-based; conditions: CHO-K1; CHOK1 Tau P301L cells; remaining tau in sarkosyl insoluble pellet; 48 hours with test compound at 1 μM, doxycycline removed for last 24 hours; relative to DMSO doxycycline control; read-out: Tau Protein Degradation effect at 1 μM
T1 construct: expressed in transfected cells
T1 sequence (P10636 1-441 isoform P10636-8 P301L): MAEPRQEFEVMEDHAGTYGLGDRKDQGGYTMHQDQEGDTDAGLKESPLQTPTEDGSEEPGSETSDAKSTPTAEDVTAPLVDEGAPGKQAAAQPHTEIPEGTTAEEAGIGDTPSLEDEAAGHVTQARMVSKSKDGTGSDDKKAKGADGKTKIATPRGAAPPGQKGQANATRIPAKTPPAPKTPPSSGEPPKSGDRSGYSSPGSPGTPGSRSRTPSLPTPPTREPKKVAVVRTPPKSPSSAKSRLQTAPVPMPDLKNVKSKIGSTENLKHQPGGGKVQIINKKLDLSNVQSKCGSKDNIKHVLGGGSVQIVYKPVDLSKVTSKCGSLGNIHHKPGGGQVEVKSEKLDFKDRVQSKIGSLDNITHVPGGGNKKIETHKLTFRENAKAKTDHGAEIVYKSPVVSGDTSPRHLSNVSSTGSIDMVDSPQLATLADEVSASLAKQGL
In short: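 Sarkosyl-insoluble pellet tau, measured by WES capillary immunoassay (Tau1 antibody), was scored against DMSO doxycycline control as ≤50% or >50% remaining. Cells were CHOK1 clone D1 expressing Tau P301L under doxycycline (1 μg/ml), given 1 μM compound for 48 h with doxycycline withdrawn during the last 24 h.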

Row | SMILES | remaining activity at 1 µM
1 | O=C1CCC(N2C(=O)c3cc(F)c(N4CCC(CN5CC6(C5)CN(C[C@H]5C[C@H](Oc7ccc(-c8ccc9c%10cnccc%10n(C(F)F)c9c8)cn7)C5)C6)CC4)cc3C2=O)C(=O)N1 (stereo partly shown) [Compound 640, 5-(4-((6-(((1r,3r)-3-((5-(5-(difluoromethyl)-5H-pyrido[4,3-b]indol-7-yl)pyridin-2-yl)oxy)cyclobutyl)methyl)-2,6-diazaspiro[3.3]heptan-2-yl)methyl)piperidin-1-yl)-2-(2,6-dioxopiperidin-3-yl)-6-fluoroisoindoline-1,3-dione] | < 50%
2 | O=C1CCC(N2C(=O)c3cc(N4CCN(CCC5CCN(c6ncc(-c7ccc8c9cnccc9n(C(F)F)c8c7)cc6F)CC5)CC4)cc(C(F)F)c3C2=O)C(=O)N1 (stereo not shown) [Compound 641, 4-(difluoromethyl)-6-(4-(2-(1-(5-(5-(difluoromethyl)-5H-pyrido[4,3-b]indol-7-yl)-3-fluoropyridin-2-yl)piperidin-4-yl)ethyl)piperazin-1-yl)-2-(2,6-dioxopiperidin-3-yl)isoindoline-1,3-dione] | < 50%
3 | O=C1CCC(N2C(=O)c3cc(F)c(N4CC5(CN(CCC6CCN(c7ncc(-c8ccc9c%10cnccc%10n(C(F)F)c9c8)cc7F)CC6)C5)C4)cc3C2=O)C(=O)N1 (stereo not shown) [Compound 642, 5-(6-(2-(1-(5-(5-(difluoromethyl)-5H-pyrido[4,3-b]indol-7-yl)-3-fluoropyridin-2-yl)piperidin-4-yl)ethyl)-2,6-diazaspiro[3.3]heptan-2-yl)-2-(2,6-dioxopiperidin-3-yl)-6-fluoroisoindoline-1,3-dione] | < 50%
4 | O=C1CCC(N2C(=O)c3cc(F)c(OCCN4CCC(O[C@H]5C[C@@H](N6CCC(c7ccc8c9cnccc9n(C(F)F)c8c7)CC6)C5)CC4)cc3C2=O)C(=O)N1 (stereo partly shown) [Compound 644] | < 50%
5 | O=C1CCC(N2C(=O)c3cc(F)c(N4CCN(CCC5CCN(c6ncc(-c7c(F)cc8c9cnccc9n(CC(F)(F)F)c8c7F)cn6)CC5)CC4)cc3C2=O)C(=O)N1 (stereo not shown) [Compound 645, 5-(4-(2-(1-(5-(6,8-difluoro-5-(2,2,2-trifluoroethyl)-5H-pyrido[4,3-b]indol-7-yl)pyrimidin-2-yl)piperidin-4-yl)ethyl)piperazin-1-yl)-2-(2,6-dioxopiperidin-3-yl)-6-fluoroisoindoline-1,3-dione] | < 50%
6 | O=C1CCC(N2C(=O)c3cc(F)c(OCCN4CC5(C4)CN(C[C@H]4C[C@H](Oc6ncc(-c7ccc8c9cnccc9n(C(F)F)c8c7)cc6F)C4)C5)cc3C2=O)C(=O)N1 (stereo partly shown) [Compound 646, 5-(2-(6-(((1r,3r)-3-((5-(5-(difluoromethyl)-5H-pyrido[4,3-b]indol-7-yl)-3-fluoropyridin-2-yl)oxy)cyclobutyl)methyl)-2,6-diazaspiro[3.3]heptan-2-yl)ethoxy)-2-(2,6-dioxopiperidin-3-yl)-6-fluoroisoindoline-1,3-dione] | < 50%
7 | CN1CCc2[nH]c3cc(-c4cnc(N5CCC(CCN6CCN(c7cc8c(cc7F)C(=O)N(C7CCC(=O)NC7=O)C8=O)CC6)CC5)c(F)c4)ccc3c2C1 (stereo not shown) [Compound 647, 2-(2,6-dioxopiperidin-3-yl)-5-fluoro-6-(4-(2-(1-(3-fluoro-5-(2-methyl-2,3,4,5-tetrahydro-1H-pyrido[4,3-b]indol-7-yl)pyridin-2-yl)piperidin-4-yl)ethyl)piperazin-1-yl)isoindoline-1,3-dione] | > 50%

Other lines, results leading:

Row | remaining activity at 1 µM | SMILES
8 | < 50% | CN(C)c1ccn2cc(-c3cnc(N4CCC(CCN5CCN(c6ccc7c(c6)C(=O)N(C6CCC(=O)NC6=O)C7=O)CC5)CC4)c(F)c3)nc2c1 (stereo not shown) [Compound 680, 5-(4-(2-(1-(5-(7-(dimethylamino)imidazo [1,2-a]pyridin-2-yl)-3-fluoropyridin-2-yl)piperidin-4-yl)ethyl)piperazin-1-yl)-2-(2,6-dioxopiperidin-3-yl)isoindoline-1,3-dione]
9 | < 50% | O=C1CCC(N2Cc3c(cccc3N3CCN(CCC4CCN(c5ncc(-c6ccc7c8cnccc8n(C(F)F)c7c6)cc5F)CC4)CC3)C2=O)C(=O)N1 (stereo not shown) [Compound 682, 3-(4-(4-(2-(1-(5-(5-(difluoromethyl)-5H-pyrido[4,3-b]indol-7-yl)-3-fluoropyridin-2-yl)piperidin-4-yl)ethyl)piperazin-1-yl)-1-oxoisoindolin-2-yl)piperidine-2,6-dione]
10 | < 50% | O=C1CCC(N2C(=O)c3ccc(N4CCC(OC5CCN(C[C@H]6C[C@H](Oc7ncc(-c8ccc9c%10cnccc%10n(C(F)F)c9c8)cc7F)C6)CC5)CC4)cc3C2=O)C(=O)N1 (stereo partly shown) [Compound N637]

same assay, conditions: CHO-K1; remaining tau protein in sarkosyl insoluble pellet; CHOK1 Tau P301L cells treated 48 hours with test compound at 1 μM, doxycycline removed for the last 24 hours; relative to DMSO doxycycline control; read-out: Tau Protein Degradation effect at 1 μM

Row | SMILES | remaining activity at 1 µM
11 | O=C1CCC(N2C(=O)c3ccc(N4CCN(CCC5CCN(c6ncc(-c7ccc8c9cncc(F)c9n(C(F)F)c8c7)cc6F)CC5)CC4)cc3C2=O)C(=O)N1 (stereo not shown) [Compound 652, 5-(4-(2-(1-(5-(5-(difluoromethyl)-4-fluoro-5H-pyrido[4,3-b]indol-7-yl)-3-fluoropyridin-2-yl)piperidin-4-yl)ethyl)piperazin-1-yl)-2-(2,6-dioxopiperidin-3-yl)isoindoline-1,3-dione] | < 50%
12 | CN(C)c1cccc2cnc(-n3ccc4cc(N5CCC(CCN6CCN(c7cc8c(cc7F)C(=O)N(C7CCC(=O)NC7=O)C8=O)CC6)CC5)ncc43)cc12 (stereo not shown) [Compound 653, 5-(4-(2-(1-(1-(5-(dimethylamino)isoquinolin-3-yl)-1H-pyrrolo[2,3-c]pyridin-5-yl)piperidin-4-yl)ethyl)piperazin-1-yl)-2-(2,6-dioxopiperidin-3-yl)-6-fluoroisoindoline-1,3-dione] | < 50%
13 | O=C1CCC(N2C(=O)c3ccc(N4CCN(CCC5CCN(c6ccnc(Nc7ccc8ncccc8n7)c6)CC5)CC4)cc3C2=O)C(=O)N1 (stereo not shown) [Compound 656, 5-(4-(2-(1-(2-((1,5-naphthyridin-2-yl)amino)pyridin-4-yl)piperidin-4-yl)ethyl)piperazin-1-yl)-2-(2,6-dioxopiperidin-3-yl)isoindoline-1,3-dione] | < 50%
14 | O=C1CCC(N2C(=O)c3ccc(N4CCN(CC5CCN(C[C@H]6C[C@H](Oc7ncc(-c8ccc9c%10cnccc%10n(C(F)F)c9c8)cc7F)C6)CC5)CC4)cc3C2=O)C(=O)N1 (stereo partly shown) [Compound 667, 5-(4-((1-(((1r,3r)-3-((5-(5-(difluoromehtyl)-5H-pyrido[4,3-b]indol-7-yl)-3-fluoropyridin-2-yl)oxy)cyclobutyl)methyl)piperidin-4-yl)methyl)piperazin-1-yl)-2-(2,6-dioxopiperidin-3-yl) isoindoline-1,3-dione] | < 50%
15 | O=C1CCC(N2C(=O)c3ccc(N4CCN(CCC5CCN(c6ncc(-c7ccc8c9cnccc9n(CC(F)(F)F)c8n7)cc6F)CC5)CC4)cc3C2=O)C(=O)N1 (stereo not shown) [Compound 673, 2-(2,6-dioxopiperidin-3-yl)-5-(4-(2-(1-(3-fluoro-5-(9-(2,2,2-trifluoroethyl)-9H-pyrrolo[2,3-b:4,5-c′]dipyridin-2-yl)pyridin-2-yl)piperidin-4-yl)ethyl)piperazin-1-yl)isoindoline-1,3-dione] | < 50%

Second part, the compound after the results:

Row | remaining activity at 1 µM | SMILES
16 | < 50% | O=C1CCC(N2C(=O)c3ccc(N4CCN(CCC5CCN(c6ncc(-c7ccc8c9cnccc9n(C(F)F)c8n7)cc6F)CC5)CC4)cc3C2=O)C(=O)N1 (stereo not shown) [Compound 674, 5-(4-(2-(1-(5-(9-(difluoromethyl)-9H-pyrrolo[2,3-b:4,5-c′]dipyridin-2-yl)-3-fluoropyridin-2-yl)piperidin-4-yl)ethyl)piperazin-1-yl)-2-(2,6-dioxopiperidin-3-yl)isoindoline-1,3-dione]
17 | < 50% | O=C1CCC(N2C(=O)c3ccc(N4CCN(CCC5CCN(c6c(F)cc(-c7ccc8c9cnccc9n(C(F)F)c8n7)cc6F)CC5)CC4)cc3C2=O)C(=O)N1 (stereo not shown) [Compound 676, 5-(4-(2-(1-(4-(9-(difluoromethyl)-9H-pyrrolo[2,3-b:4,5-c′]dipyridin-2-yl)-2,6-difluorophenyl)piperidin-4-yl)ethyl)piperazin-1-yl)-2-(2,6-dioxopiperidin-3-yl)isoindoline-1,3-dione]
18 | < 50% | CC(C)(CC1CCN(c2ncc(-c3ccc4c5cnccc5n(C(F)F)c4c3)cc2F)CC1)N1CCN(c2ccc3c(c2)C(=O)N(C2CCC(=O)NC2=O)C3=O)CC1 (stereo not shown) [Compound 677, 5-(4-(1-(1-(5-(5-(difluoromethyl)-5H-pyrido[4,3-b]indol-7-yl)-3-fluoropyridin-2-yl)piperidin-4-yl)-2-methylpropan-2-yl)piperazin-1-yl)-2-(2,6-dioxopiperidin-3-yl)isoindoline-1,3-dione]
19 | < 50% | O=C1CCC(N2C(=O)c3ccc(N4CCN(CCC5CCN(c6ccc(-c7c(F)cc8c9cnccc9n(C(F)F)c8c7F)cn6)CC5)CC4)cc3C2=O)C(=O)N1 (stereo not shown) [Compound 679, 5-(4-(2-(1-(5-(5-(difluoromethyl)-6,8-difluoro-5H-pyrido[4,3-b]indol-7-yl)pyridin-2-yl)piperidin-4-yl)ethyl)piperazin-1-yl)-2-(2,6-dioxopiperidin-3-yl)isoindoline-1,3-dione]
